Measurements as given in patent US20250263385A1 (SANOFI, priority 2022, published 2025).

System: Human erythropoietin (hEPO) levels in sera
Assay: Delivery of hEPO mRNA by intramuscular administration of lipid nanoparticles; serum hEPO by ELISA
Format: in vivo, Mouse (female BALB/cJ)
Conditions: single IM injection of 0.1 μg hEPO mRNA LNP in 30 μL into right gastrocnemius, female BALB/cJ mice, cationic lipids in formulation 1, MC3 in formulation 2; for hEPO 6 Hr (ng/mL) Mean: 6 hours post dose; for hEPO 24 Hr (ng/mL) Mean: 24 hours post dose
Method: Lipid nanoparticle formulations of Table 3 were prepared by Process A. All of the lipid nanoparticle formulations comprised hEPO mRNA and the different lipids (Cationic Lipid: DMG-PEG2000: Cholesterol: DOPE/DSPC) in the mol % ratios specified in Table 3.
The cationic lipids of the present invention were evaluated with lipid nanoparticle formulation 1. MC3 was evaluated with lipid nanoparticle formulation 2, which is a typical MC3 formulation.
In summary, lipid screening studies were conducted with female BALB/cJ mice 6-8 weeks of age. Mice were dosed with 0.1 μg in 30 μL of LNPs by a single intramuscular (IM) injection into the gastrocnemius leg muscle. Blood samples were taken 6 and 24 hours post injection and hEPO levels were measured in the blood serum of the mice using an ELISA assay according to the manufacture's protocol. WO2022/099003 A1 also describes an in vivo assay for intramuscular administration (e.g. on page 46, paragraph [00206]).
Treatment Regimen: On Day 1, animals from Groups 1-13 were dosed via intramuscular injection while under light isoflurane anesthesia according to the study design table above. Animals in Groups 1-13 were injected with EPO mRNA LNPs in the right leg only. Group 1 animals received MC3 control. The cationic lipid MC3 is the current gold standard for in vivo delivery of e.g. siRNA (see WO2010/144740).
Interim Sample Collections: Interim whole blood (^˜50 μL) was collected by tail snip or saphenous vein at 6 and 24 hours post dose administration (±5%). Blood samples were collected into serum separator tubes, allowed to clot at room temperature for at least 10 minutes, centrifuged at ambient temperature at minimum 1000 g for 10 minutes and the serum was extracted. All serum samples were stored at nominally −70° C. until analysis hEPO by the Testing Facility. The results of the EPO analysis were included in the Data Submission.
Terminal Blood Collections: Whole blood was collected via cardiac puncture into serum separator tube, allowed to clot at room temperature for at least 10 minutes, centrifuged at ambient temperature at minimum 1000 g for 10 minutes and the serum was extracted. Serum samples were stored at nominally −70° C. until analyzed for hEPO by the Test Facility.
ELISA Assay: Human erythropoietin (hEPO) levels in sera samples were determined by ELISA kit (R&D systems, Cat #DEP-00) according to the manufactory instruction and the results were included in the Data Submission. The “shaker” protocol was used. The serum samples were diluted between 1:40 and 1:100.

CCC(CC)COC(=O)CCCCCCC(O)CN(CCCSSCCN1CCN(CCOC(=O)CCCN(CC(O)CCCCC(=O)OCCC(C)C)CC(O)CCCCC(=O)OCCC(C)C)CC1)CC(O)CCCCCCC(=O)OCC(CC)CC (centres unmarked) [Compound 45, Bis(2-ethylbutyl) 9,9′-((3-((2-(4-(2-((4-(bis(2-hydroxy-7-(isopentyloxy)-7-oxoheptyl)amino)-butanoyl)oxy)ethyl)piperazin-1-yl)ethyl)disulfaneyl)propyl)azanediyl)bis(8-hydroxynonanoate)]
hEPO 6 Hr (ng/mL) Mean: 8.33 ng/mL
hEPO 24 Hr (ng/mL) Mean: 3.99 ng/mL

CCC(CC)COC(=O)CCCCCCC(O)CN(CCCC(=O)OCCN1CCN(CCSSCCCCN(CC(O)CCCCC(=O)OCC(CC)CC)CC(O)CCCCC(=O)OCC(CC)CC)CC1)CC(O)CCCCCCC(=O)OCC(CC)CC (centres unmarked) [Compound 50, Bis(2-ethylbutyl) 9,9′-((4-(2-(4-(2-((4-(bis(7-(2-ethylbutoxy)-2-hydroxy-7-oxoheptyl)amino)-butyl)disulfaneyl)ethyl)piperazin-1-yl)ethoxy)-4-oxobutyl)azanediyl)bis(8-hydroxynonanoate)]
hEPO 6 Hr (ng/mL) Mean: 14.94 ng/mL
hEPO 24 Hr (ng/mL) Mean: 8.87 ng/mL

CCC(CC)COC(=O)CCCCCCC(O)CN(CCCCSSCCN1CCN(CCOC(=O)CCCN(CC(O)CCCCC(=O)OCC(CC)CC)CC(O)CCCCC(=O)OCC(CC)CC)CC1)CC(O)CCCCCCC(=O)OCC(CC)CC (centres unmarked) [Compound 57, Bis(2-ethylbutyl) 9,9′-((4-((2-(4-(2-((4-(bis(7-(2-ethylbutoxy)-2-hydroxy-7-oxoheptyl)amino)butanoyl)oxy)ethyl)piperazin-1-yl)ethyl)disulfaneyl)butyl)azanediyl)bis(8-hydroxynonanoate)]
hEPO 6 Hr (ng/mL) Mean: 13.33 ng/mL
hEPO 24 Hr (ng/mL) Mean: 8.19 ng/mL

CCC(CC)COC(=O)CCCCCCC(O)CN(CCCCC(=O)OCCN1CCN(CCSSCCCCN(CC(O)CCCCC(=O)OCC(CC)CC)CC(O)CCCCC(=O)OCC(CC)CC)CC1)CC(O)CCCCCCC(=O)OCC(CC)CC (centres unmarked) [Compound 51, Bis(2-ethylbutyl) 9,9′-((5-(2-(4-(2-((4-(bis(7-(2-ethylbutoxy)-2-hydroxy-7-oxoheptyl)amino)-butyl)disulfaneyl)ethyl)piperazin-1-yl)ethoxy)-5-oxopentyl)azanediyl)bis(8-hydroxynonanoate)]
hEPO 6 Hr (ng/mL) Mean: 16.39 ng/mL
hEPO 24 Hr (ng/mL) Mean: 9.03 ng/mL

CCCCOC(=O)CCCCCCC(O)CN(CCCCC(=O)OCCN1CCN(CCSSCCCCN(CC(O)CCCCCCC(=O)OCC(CC)CC)CC(O)CCCCCCC(=O)OCC(CC)CC)CC1)CC(O)CCCCCCC(=O)OCCCC (centres unmarked) [Compound 53, Dibutyl 9,9′-((5-(2-(4-(2-((4-(bis(9-(2-ethylbutoxy)-2-hydroxy-9-oxononyl)amino)-butyl)disulfaneyl)ethyl)piperazin-1-yl)ethoxy)-5-oxopentyl)azanediyl)bis(8-hydroxynonanoate)]
hEPO 6 Hr (ng/mL) Mean: 9.07 ng/mL
hEPO 24 Hr (ng/mL) Mean: 4.66 ng/mL

CCCCOC(=O)CCCCCCC(O)CN(CCCCC(=O)OCCN1CCN(CCSSCCCN(CC(O)CCCCC(=O)OC(C)C)CC(O)CCCCC(=O)OC(C)C)CC1)CC(O)CCCCCCC(=O)OCCCC (centres unmarked) [Compound 78]
hEPO 6 Hr (ng/mL) Mean: 7.05 ng/mL
hEPO 24 Hr (ng/mL) Mean: 3.30 ng/mL

CCC(CC)COC(=O)CCCCC(O)CN(CCCSSCCN1CCN(CCOC(=O)CCCN(CC(O)CCCCC(=O)OCC(CC)CC)CC(O)CCCCC(=O)OCC(CC)CC)CC1)CC(O)CCCCC(=O)OCC(CC)CC (centres unmarked) [Compound 92, Bis(2-ethylbutyl) 7,7′-((3-((2-(4-(2-((4-(bis(7-(2-ethylbutoxy)-2-hydroxy-7-oxoheptyl)amino)butanoyl)oxy)ethyl)piperazin-1-yl)ethyl)disulfaneyl)propyl)azanediyl)bis(6-hydroxyheptanoate)]
hEPO 6 Hr (ng/mL) Mean: 13.11 ng/mL
hEPO 24 Hr (ng/mL) Mean: 5.75 ng/mL

CCC(CC)COC(=O)CCCCCCC(O)CN(CCCC(=O)OCCN1CCN(CCSSCCCN(CC(O)CCCCCCC(=O)OCCC(C)C)CC(O)CCCCCCC(=O)OCCC(C)C)CC1)CC(O)CCCCCCC(=O)OCC(CC)CC (centres unmarked) [Compound 29, Bis(2-ethylbutyl) 9,9′-((4-(2-(4-(2-((3-(bis(2-hydroxy-9-(isopentyloxy)-9-oxononyl)-amino)propyl)disulfaneyl)ethyl)piperazin-1-yl)ethoxy)-4-oxobutyl)azanediyl)bis(8-hydroxynonanoate)]
hEPO 6 Hr (ng/mL) Mean: 10.01 ng/mL
hEPO 24 Hr (ng/mL) Mean: 4.93 ng/mL

CCCCC/C=C\C/C=C\CCCCCCCCC(CCCCCCCC/C=C\C/C=C\CCCCC)OC(=O)CCCN(C)C [MC3, reference compound]
hEPO 6 Hr (ng/mL) Mean: 3.94 ng/mL
hEPO 24 Hr (ng/mL) Mean: 2.44 ng/mL

CCCCOC(=O)CCCCCCC(O)CN(CCCSSCCN1CCN(CCOC(=O)CCCCN(CC(O)CCCCCCC(=O)OCC(CC)CC)CC(O)CCCCCCC(=O)OCC(CC)CC)CC1)CC(O)CCCCCCC(=O)OCCCC (centres unmarked) [Compound 6, Dibutyl 9,9′-((3-((2-(4-(2-((5-(bis(9-(2-ethylbutoxy)-2-hydroxy-9-oxononyl)amino)-pentanoyl)oxy)ethyl)piperazin-1-yl)ethyl)disulfaneyl)propyl)azanediyl)bis(8-hydroxynonanoate)]
hEPO 6 Hr (ng/mL) Mean: 8.72 ng/mL
hEPO 24 Hr (ng/mL) Mean: 8.90 ng/mL

CCCCOC(=O)CCCCCCC(O)CN(CCCC(=O)OCCN1CCN(CCSSCCCN(CC(O)CCCCCCC(=O)OCC(CC)CC)CC(O)CCCCCCC(=O)OCC(CC)CC)CC1)CC(O)CCCCCCC(=O)OCCCC (centres unmarked) [Compound 42, Dibutyl 9,9′-((5-(2-(4-(2-((4-(bis(9-(2-ethylbutoxy)-2-hydroxy-9-oxononyl)amino)propyl)disulfaneyl)ethyl)piperazin-1-yl)ethoxy)-4-oxobutyl)azanediyl)bis(8-hydroxynonanoate)]
hEPO 6 Hr (ng/mL) Mean: 9.07 ng/mL
hEPO 24 Hr (ng/mL) Mean: 3.06 ng/mL

CCC(CC)COC(=O)CCCCCCC(O)CN(CCCSSCCN1CCN(CCOC(=O)CCCN(CC(O)CCCC(=O)OC(CC)CC)CC(O)CCCC(=O)OC(CC)CC)CC1)CC(O)CCCCCCC(=O)OCC(CC)CC (centres unmarked) [Compound 46, Bis(2-ethylbutyl) 9,9′-((3-((2-(4-(2-((4-(bis(2-hydroxy-6-oxo-6-(pentan-3-yloxy)hexyl)-amino)butanoyl)oxy)ethyl)piperazin-1-yl)ethyl)disulfaneyl)propyl)azanediyl)bis(8-hydroxynonanoate)]
hEPO 6 Hr (ng/mL) Mean: 12.38 ng/mL
hEPO 24 Hr (ng/mL) Mean: 5.78 ng/mL

CCCCOC(=O)CCCCCCC(O)CN(CCCCSSCCN1CCN(CCOC(=O)CCCCN(CC(O)CCCCCCC(=O)OCC(CC)CC)CC(O)CCCCCCC(=O)OCC(CC)CC)CC1)CC(O)CCCCCCC(=O)OCCCC (centres unmarked) [Compound 12]
hEPO 6 Hr (ng/mL) Mean: 8.06 ng/mL
hEPO 24 Hr (ng/mL) Mean: 4.86 ng/mL
